Each block holds one compound with its values, some of them ahead of it.
Tests used:
HIF-2α = target: T1, HIF-2α (Homo sapiens, UniProt Q99814); assay: HIF-2α Luciferase Reporter Assay; format: cell-based; settings: HIF-Luc-786-0 cells, 20 hours incubation, luciferase activity; read-out: HIF-2α Luciferase Assay
T1 construct: endogenous in cells; host or cells: 786-O cells (ATCC CRL-1932) stably carrying the Cignal Lenti HIF Luc Reporter
Procedure: Stable cell lines were generated by transducing 786-O cells (ATCC, CRL-1932) with Cignal Lenti HIF Luc Reporter lentivirus (CLS-007L, Qiagen) according to the manufacturer's guidelines. In brief, 0.3×10^6 786-0 cells were transduced with lentivirus at a Multiplicity of Infection (MOI) of 25 for 24 hours. After transduction, cells were replenished with fresh RPMI 1640 Medium (Cat. No. 11875085, Thermo Fisher,) supplemented with 10% FBS (Cat. No. A3160502, Gibco), 2 mM GlutaMax (Cat. No. 35050-061, Invitrogen) and 100 units of penicillin and 100 μg of streptomycin/mL (Cat. No 15070063, Thermo Fisher) for another 24 hours. Antibiotic selection was performed in cell media containing 4 μg/mL of Puromycin. After 7 days of antibiotic selection, stable pools of surviving cells were expanded and used in a luciferase reporter assay.
On day one, 20 uL of HIF-Luc-786-0 cells in OptiMem (Cat. No. 31985088, Thermo Fisher) were seeded into each well of a 384 well white opaque plate (Corning 3570) and incubated at 37° C. and 5% CO2. Twenty microliters of 2× test compounds in OptiMem were added to cells after 4 hours of incubation. Final assay conditions comprised 20,000 cells per well in 1% DMSO with test compound concentrations ranging from 50 uM to 0 uM. After 20 hours incubation at 37° C. and 5% CO2, luciferase activity was determined using ONE-Glo Luciferase Assay Reagent (E6110, Promega) following the manufacture's recommended procedure. Briefly, 40 uL of ONE-Glo luciferase reagents were added to each well and luciferase signals were measured using an Envision 2102 Multilabel Reader. Percentage maximum activity in each test well was calculated based on DMSO (maximum activity) and no cell control wells (baseline activity). The IC50 values of the test compounds were determined from compound dose response curves fitted using a standard four parameter fit equation.

[1] = target: T2, Histidine tagged HIF-2α protein containing PAS-B domain (240-350) (Homo sapiens, UniProt Q99814); assay: HIF-2α Scintillation Proximity Assay (SPA); format: binding; settings: 50 nM HIF-2α protein, 25 nM radiolabeled tracer; read-out: HIF-2α Scintillation Proximity Assay
T2 construct: Histidine tagged HIF-2α protein containing PAS-B domain (240-350) was prepared and purified in house; made in house
T2 sequence (Q99814 240-350): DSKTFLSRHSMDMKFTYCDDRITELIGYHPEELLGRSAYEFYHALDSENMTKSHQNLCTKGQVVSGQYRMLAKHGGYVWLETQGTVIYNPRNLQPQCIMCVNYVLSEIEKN
Procedure: Tritium labeled compound N-(3-chlorophenyl)-4-nitro-2,1,3-benzoxadiazol-5-amine was obtained from American Radiolabeled Chemicals Inc. and copper chelate PVT SPA beads were from PerkinElmer (Cat #RPNQ0095). Histidine tagged HIF-2α protein containing PAS-B domain (240-350) was prepared and purified in house.
Compounds solubilized in DMSO were dispensed into a white 384-well polystyrene non-binding flat clear bottom plate (Greiner Bio-One, Cat #781903) using an HP D300 dispenser. Ten microliters of HIS-tagged HIF-2α protein in buffer (25 mM Tris-HCl, pH 7.4, 150 mM NaCl, 0.15% BSA and 0.001% Tween 20) was added to the compound wells and allowed to incubate for 1 hour at room temperature. Ten microliters of SPA bead mix were added to the wells and incubated for an additional 45 minutes, followed by 10 ul of ^3H-tracer solution. Final assay conditions comprised 50 nM HIF-2α protein, 25 nM radiolabeled tracer and 3 ug beads per well with compounds in 2% DMSO. The plate was read using a MicroBeta Microplate Counter (PerkinElmer) for luminescence detection. The IC50 values of the test compounds were determined from compound dose response curves fitted using a standard four parameter fit equation and are reported in Table 1.

T1 sequence (Q99814 whole entry): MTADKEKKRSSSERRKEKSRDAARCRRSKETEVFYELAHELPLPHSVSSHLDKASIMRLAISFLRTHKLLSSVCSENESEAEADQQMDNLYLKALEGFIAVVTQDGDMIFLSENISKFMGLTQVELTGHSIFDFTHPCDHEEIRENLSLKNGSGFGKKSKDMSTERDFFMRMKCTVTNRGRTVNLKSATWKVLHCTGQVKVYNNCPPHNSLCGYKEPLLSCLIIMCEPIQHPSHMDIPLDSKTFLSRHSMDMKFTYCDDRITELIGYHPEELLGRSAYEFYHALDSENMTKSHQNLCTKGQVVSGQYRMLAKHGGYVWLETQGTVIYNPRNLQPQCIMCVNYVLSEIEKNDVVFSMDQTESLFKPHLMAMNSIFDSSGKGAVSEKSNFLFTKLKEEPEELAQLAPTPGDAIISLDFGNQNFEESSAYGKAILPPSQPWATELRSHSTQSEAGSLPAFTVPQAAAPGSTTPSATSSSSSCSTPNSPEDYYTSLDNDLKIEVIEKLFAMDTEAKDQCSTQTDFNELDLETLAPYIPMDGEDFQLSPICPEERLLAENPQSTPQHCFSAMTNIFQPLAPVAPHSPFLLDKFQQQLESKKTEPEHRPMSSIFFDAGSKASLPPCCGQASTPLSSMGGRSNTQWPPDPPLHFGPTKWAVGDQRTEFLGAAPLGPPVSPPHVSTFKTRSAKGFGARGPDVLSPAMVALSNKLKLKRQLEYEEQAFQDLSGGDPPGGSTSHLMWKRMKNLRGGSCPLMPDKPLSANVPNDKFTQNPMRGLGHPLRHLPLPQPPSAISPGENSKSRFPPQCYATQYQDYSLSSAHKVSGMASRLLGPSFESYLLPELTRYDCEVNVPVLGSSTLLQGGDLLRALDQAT

SMILES: O=S(=O)(c1ccc(NCc2ccccc2)c2cn[nH]c12)C(F)(F)F [Example 51, N-benzyl-7-(trifluoromethylsulfonyl)-1H-indazol-4-amine]
IC50 (HIF-2α): > 10 µM
IC50 [1]: > 10 µM

SMILES: N#Cc1cc(F)cc(Oc2ccc(S(=O)(=O)C(F)F)c3[nH]nc(I)c23)c1 [Example 13, 5-[7-(Difluoromethylsulfonyl)-3-iodo-1H-indazol-4-yloxy]-3-fluorobenzonitrile]
IC50 (HIF-2α): 1 to 10 µM
IC50 [1]: > 10 µM

SMILES: N#Cc1cc(F)cc(Nc2ccc(C(F)(F)F)c3[nH]ncc23)c1 [Example 14, 3-Fluoro-5-[7-(trifluoromethyl)-1H-indazol-4-ylamino]benzonitrile]
IC50 (HIF-2α): 1 to 10 µM
IC50 [1]: 1 to 10 µM

SMILES: Fc1cc(F)cc(Oc2ccc(C(F)(F)F)c3[nH]ncc23)c1 [Example 26, 4-(3,5-Difluorophenoxy)-7-(trifluoromethyl)-1H-indazole]
IC50 (HIF-2α): 1 to 10 µM
IC50 [1]: 1 to 10 µM

SMILES: O=S(=O)(c1ccc(NCc2ccc(F)cc2Cl)c2cn[nH]c12)C(F)(F)F [Example 54, N-[(2-chloro-4-fluorophenyl)methyl]-7-(trifluoromethylsulfonyl)-1H-indazol-4-amine]
IC50 (HIF-2α): > 10 µM
IC50 [1]: > 10 µM

Results, then the compound that gave them:

IC50 (HIF-2α): > 10 µM
IC50 [1]: 1 to 10 µM
SMILES: N#Cc1cc(Oc2ccc(S(=O)(=O)C(F)(F)F)c3[nH]ncc23)ccc1Cl [Example 35, 2-Chloro-5-[[7-(trifluoromethylsulfonyl)-1H-indazol-4-yl]oxy]benzonitrile]

IC50 (HIF-2α): > 10 µM
IC50 [1]: 1 to 10 µM
SMILES: O=S(=O)(c1ccc(Oc2cc(F)c(F)c(F)c2)c2cn[nH]c12)C(F)(F)F [Example 30, 7-(Trifluoromethylsulfonyl)-4-(3,4,5-trifluorophenoxy)-1H-indazole]

IC50 (HIF-2α): 1 to 10 µM
IC50 [1]: < 1 µM
SMILES: N#Cc1cccc(Oc2ccc(S(=O)(=O)C(F)(F)F)c3[nH]ncc23)c1 [Example 42, 3-[[7-(Trifluoromethylsulfonyl)-1H-indazol-4-yl]oxy]benzonitrile]

IC50 (HIF-2α): > 10 µM
IC50 [1]: > 10 µM
SMILES: Cc1cncc(Oc2ccc(S(=O)(=O)C(F)(F)F)c3[nH]ncc23)n1 [Example 21, 4-[(6-Methylpyrazin-2-yl)oxy]-7-trifluoromethanesulfonyl-1H-indazole]

From patent US20230024438A1, “INHIBITORS OF HIF-2ALPHA” (ARCUS BIOSCIENCES, INC., priority 2019, published 2023)
